Experimental data published in article PMC8806001 (ACS Pharmacology & Translational Science, 2022).

Legend:
SARS-CoV-2 PL^pro [1] = target: T1, SARS-CoV-2 PL^pro (Severe acute respiratory syndrome coronavirus 2, UniProt P0DTD1); test: cell-based
SARS-CoV-2 PL^pro [2] = target: T1, SARS-CoV-2 PL^pro; test: Thermal shift binding assay; conditions: effect on stability of PL^pro
SARS-CoV PL^pro = conditions: read-out: IC50 against SARS-CoV PL^pro; cited from earlier work
MERS-CoV PL^pro = conditions: read-out: IC50 against MERS-CoV PL^pro; cited from earlier work
SARS-CoV-2 PL^pro [3] = target: T1, SARS-CoV-2 PL^pro; assay type: biochemical; conditions: 200 nM PL^pro, 5 mM DTT, pH 7.5, 30 °C; highest concentration 60 μM

Row | SMILES | FlipGFP EC50 (SARS-CoV-2 PL^pro [1]) | EC50 (SARS-CoV-2 PL^pro [1]; FlipGFP EC50) | TSA binding result (in words) (SARS-CoV-2 PL^pro [2]) | IC50 (SARS-CoV PL^pro) | IC50 (MERS-CoV PL^pro) | Validation FRET IC50 (SARS-CoV-2 PL^pro [3]) | Cytotoxicity in FlipGFP assay (in words) (293T cells)
1 | Cc1coc2c1C(=O)C(=O)c1c-2ccc2c1CCCC2(C)C [Tanshinone IIA] | not active | > 20 µM | denaturation of the protein (no melting peak) | – | – | – | –
2 | Sc1ncnc2nc[nH]c12 [6-mercaptopurine] | not active | – | not active | 21.6 µM | 26.9 µM | not active | –
3 | C[C@H]1COC2=C1C(=O)C(=O)c1c2ccc2c1CCCC2(C)C [Cryptotanshinone] | not active | – | destabilization | – | – | – | –
4 | COCCn1c2c([n+](Cc3cnccn3)c1C)C(=O)c1ccccc1C2=O [YM155] | not conclusive | – | no effect | – | – | – | cytotoxic
5 | Nc1nc2nc[nH]c2c(=S)[nH]1 [6-thioguanine] | not active | – | did not show binding | 5 µM | 24.4 µM | – | –
6 | Cc1coc2c1C(=O)C(=O)c1c-2ccc2c(C)cccc12 [Tanshinone I] | not active | – | destabilization | – | – | – | –
7 | Cc1cccc2c3c(ccc12)C1=C(C(=O)C3=O)[C@@H](C)CO1 [Dihydrotanshinone I] | not active | – | did not bind | – | – | – | –
